Among the data in US9624214B2, “Amino-substituted imidazo[1,2-a]pyridinecarboxamides and their use” (BAYER PHARMA AKTIENGESELLSCHAFT, priority 2012, dated 2017) are MEC values, retold here.

Counter-ions that a name gives are not always drawn.

In this test the target is T1, recombinant guanylate cyclase reporter cell line (Rattus norvegicus, UniProt P19686+P20595).
T1 construct: expressed in transfected cells
T1 sequence (P20595 1-619): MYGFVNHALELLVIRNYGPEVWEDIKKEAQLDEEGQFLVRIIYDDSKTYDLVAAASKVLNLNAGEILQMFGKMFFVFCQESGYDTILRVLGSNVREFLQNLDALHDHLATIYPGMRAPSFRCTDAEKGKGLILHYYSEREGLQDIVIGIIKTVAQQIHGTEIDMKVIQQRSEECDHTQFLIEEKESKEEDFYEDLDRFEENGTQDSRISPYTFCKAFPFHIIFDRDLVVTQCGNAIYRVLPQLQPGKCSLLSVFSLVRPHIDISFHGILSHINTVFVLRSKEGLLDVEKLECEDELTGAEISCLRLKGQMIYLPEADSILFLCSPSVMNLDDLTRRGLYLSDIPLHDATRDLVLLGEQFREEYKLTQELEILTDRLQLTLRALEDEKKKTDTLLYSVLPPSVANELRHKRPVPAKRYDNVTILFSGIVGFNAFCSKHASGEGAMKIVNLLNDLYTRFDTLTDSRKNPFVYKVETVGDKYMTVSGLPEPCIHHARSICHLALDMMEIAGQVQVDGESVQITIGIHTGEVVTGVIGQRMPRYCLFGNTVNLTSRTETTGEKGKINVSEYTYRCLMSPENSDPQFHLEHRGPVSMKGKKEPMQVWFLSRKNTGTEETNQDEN
T1 sequence (P19686 1-690): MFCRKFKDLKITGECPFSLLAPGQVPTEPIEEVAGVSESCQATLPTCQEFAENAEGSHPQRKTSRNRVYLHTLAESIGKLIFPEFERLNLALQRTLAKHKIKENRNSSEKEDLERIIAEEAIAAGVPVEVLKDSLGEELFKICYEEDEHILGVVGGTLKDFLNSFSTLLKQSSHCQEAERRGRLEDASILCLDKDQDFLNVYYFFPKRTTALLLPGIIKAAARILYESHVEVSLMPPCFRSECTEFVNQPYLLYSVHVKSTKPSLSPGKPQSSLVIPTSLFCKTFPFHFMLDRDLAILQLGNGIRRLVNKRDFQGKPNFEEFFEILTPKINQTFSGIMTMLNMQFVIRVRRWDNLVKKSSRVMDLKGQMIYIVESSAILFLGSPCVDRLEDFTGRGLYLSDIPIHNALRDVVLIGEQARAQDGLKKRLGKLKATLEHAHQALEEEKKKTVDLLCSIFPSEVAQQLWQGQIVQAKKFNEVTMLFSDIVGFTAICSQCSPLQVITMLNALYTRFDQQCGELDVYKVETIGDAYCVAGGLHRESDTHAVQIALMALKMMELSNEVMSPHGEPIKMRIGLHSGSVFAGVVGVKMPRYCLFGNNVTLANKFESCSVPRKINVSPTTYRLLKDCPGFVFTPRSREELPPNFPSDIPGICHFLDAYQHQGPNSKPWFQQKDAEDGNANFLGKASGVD
Kind of test: B-2. Action on recombinant guanylate cyclase reporter cell line. It is filed as cell-based. The note with it: MEC = minimal effective concentration; in some cases mean values from individual determinations. In outline: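 MEC values, meaning the lowest concentration producing a detectable response, were taken from a recombinant cyclase reporter cell assay. Where repeated, individual determinations were averaged.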
As for `Cc1cc(OCc2c(F)cccc2F)c2nc(C)c(C(=O)NCC(N)c3csc(C)n3)n2c1` (racemic) [Example 415, rac-N-[2-amino-2-(2-methyl-1,3-thiazol-4-yl)ethyl]-8-[(2,6-difluorobenzyl)oxy]-2,6-dimethylimidazo[1,2-a]pyridine-3-carboxamide Triformate], the MEC is 5.5 µM.

With `CCC(C)(N)CNC(=O)c1c(C)nc2c(OCc3c(F)cccc3F)cc(C)cn12.Cl` (single isomer, unassigned; enantiomer a) [Example 357, ent-N-(2-amino-2-methylbutyl)-8-[(2,6-difluorobenzyl)oxy]-2,6-dimethylimidazo[1,2-a]pyridine-3-carboxamide Hydrochloride (Enantiomer A)], the MEC was determined as 0.03 µM. As for `Cc1nc2c(OCc3c(F)cccc3F)cccn2c1C(=O)NCC(C)CN` (single isomer, unassigned) [Example 96, ent-N-(3-Amino-2-methylpropyl)-8-[(2,6-difluorobenzyl)oxy]-2-methylimidazo[1,2-a]pyridine-3-carboxamide Dihydrochloride], the MEC amounted to 1.00 µM. Under `Cc1nc2c(OCc3c(F)cccc3F)cccn2c1C(=O)NCC1NCCc2ccccc21` (racemic) [Example 80, rac-8-[(2,6-difluorobenzyl)oxy]-2-methyl-N-(1,2,3,4-tetrahydroisoquinolin-1-ylmethyl)-imidazo[1,2-a]pyridine-3-carboxamide] stands 1.00 µM; under `Cc1nc2c(OCc3c(F)cccc3Cl)cccn2c1C(=O)NC(CN)c1ccc(F)c(F)c1` (stereo not drawn) [Example 102, ent-N-[2-amino-1-(3,4-difluorophenyl)ethyl]-8-[(2-chloro-6-fluorobenzyl)oxy]-2-methylimidazo[1,2-a]pyridine-3-carboxamide], 1.00 µM. `Cc1nc2c(OCc3c(F)cccc3F)cc(Cl)cn2c1C(=O)NCC(N)C(C)C` (single isomer, unassigned) [Example 212, ent-N-(2-Amino-3-methylbutyl)-6-chloro-8-[(2,6-difluorobenzyl)oxy]-2-methylimidazo[1,2-a]-pyridine-3-carboxamide]: the MEC came out at 1.00 µM.

Turning to `Cc1nc2c(OCc3c(F)cccc3F)cccn2c1C(=O)NC(C)[C@H](C)N` (single isomer, unassigned) [Example 175], the MEC worked out at 1.00 µM. Under `COCC(C)(N)CNC(=O)c1c(C)nc2c(OCc3c(F)cccc3F)cc(C)cn12` (single isomer, unassigned) [Example 198, ent-N-(2-Amino-3-methoxy-2-methylpropyl)-8-[(2,6-difluorobenzyl)oxy]-2,6-dimethylimidazo-[1,2-a]pyridine-3-carboxamide] stands 0.30 µM; under `Cc1cc(OCc2c(F)cccc2F)c2nc(C)c(C(=O)NC34CC5CC(CC(N)(C5)C3)C4)n2c1` [Example 365, N-(3-aminoadamantan-1-yl)-8-[(2,6-difluorobenzyl)oxy]-2,6-dimethylimidazo[1,2-a]pyridine-3-carboxamide Formate], 1.00 µM; under `Cc1nc2c(OCc3c(F)cccc3F)cccn2c1C(=O)NCC(N)COC(C)C` (racemic) [Example 205, rac-N-(2-Amino-3-isopropoxypropyl)-8-[(2,6-difluorobenzyl)oxy]-2-methylimidazo[1,2-a]-pyridine-3-carboxamide], 0.30 µM. Under `COCC(C)(N)CNC(=O)c1c(C)nc2c(OCc3c(F)cccc3F)cc(Cl)cn12` (single isomer, unassigned) [Example 196, ent-N-(2-Amino-3-methoxy-2-methylpropyl)-6-chloro-8-[(2,6-difluorobenzyl)oxy]-2-methylimidazo[1,2-a]pyridine-3-carboxamide] stands 1.00 µM; under `Cc1cc(OCc2c(F)cccc2F)c2nc(C)c(C(=O)NC[C@@H]3CCCN3)n2c1` [Example 115, 8-[(2,6-difluorobenzyl)oxy]-2,6-dimethyl-N-[(2S)-pyrrolidin-2-ylmethyl]imidazo[1,2-a]-pyridine-3-carboxamide], 1.00 µM; under `CCC(C)(N)CNC(=O)c1c(C)nc2c(OCc3c(F)cccc3F)cc(C(F)F)cn12` (single isomer, unassigned; enantiomer a) [Example 287, ent-N-(2-amino-2-methylbutyl)-8-[(2,6-difluorobenzyl)oxy]-6-(difluoromethyl)-2-methylimidazo[1,2-a]pyridine-3-carboxamide Formate (Enantiomer A)], 0.3 µM. Consider `Cc1cc(OCc2c(F)cccc2F)c2nc(C)c(C(=O)NCCC(C)(C)N)n2c1` [Example 114, N-(3-amino-3-methylbutyl)-8-[(2,6-difluorobenzyl)oxy]-2,6-dimethylimidazo[1,2-a]-pyridine-3-carboxamide], for which the MEC was 0.30 µM. As to `CCCC(C)(N)CNC(=O)c1c(C)nc2c(OCc3c(F)cccc3F)cc(N3CCOCC3)cn12` (single isomer, unassigned; enantiomer b) [Example 280, ent-N-(2-amino-2-methylpentyl)-8-[(2,6-difluorobenzyl)oxy]-2-methyl-6-(morpholin-4-yl)imidazo[1,2-a]pyridine-3-carboxamide (Enantiomer B)], the MEC came to 0.65 µM. As for `Cc1nc2c(OCc3c(F)cccc3F)cc(Cl)cn2c1C(=O)NCC(C)N` (single isomer, unassigned; enantiomer b) [Example 30, ent-N-(2-Aminopropyl)-6-chloro-8-[(2,6-difluorobenzyl)oxy]-2-methylimidazo[1,2-a]pyridine-3-carboxamide (Enantiomer B)], the MEC amounted to 0.30 µM. On to `Cc1nc2c(OCc3c(F)cccc3F)cccn2c1C(=O)NCC(C)N1CCOCC1` (racemic) [Example 132, rac-8-[(2,6-difluorobenzyl)oxy]-2-methyl-N-[2-(morpholin-4-yl)propyl]imidazo[1,2-a]pyridine-3-carboxamide], for which the MEC came to 1.00 µM. With `COCCNCCNC(=O)c1c(C)nc2c(OCc3c(F)cccc3F)cccn12` [Example 144, 8-[(2,6-difluorobenzyl)oxy]-N-{2-[(2-methoxyethyl)amino]ethyl}-2-methylimidazo[1,2-a]pyridine-3-carboxamide], the MEC is 3.00 µM. Under `Cc1cc(OCc2c(F)cccc2F)c2nc(C)c(C(=O)NC3CCC(N)C3)n2c1` (mixture of isomers) [Example 308, N-(3-aminocyclopentyl)-8-[(2,6-difluorobenzyl)oxy]-2,6-dimethylimidazo[1,2-a]pyridine-3-carboxamide (Stereoisomer Mixture)] stands 0.20 µM. Under `Cc1cc(OCc2c(F)ccc(C3CC3)c2F)c2nc(C)c(C(=O)NCC(C)(N)CF)n2c1` (centres unmarked) [Example 362, N-(2-amino-3-fluoro-2-methylpropyl)-8-[(3-cyclopropyl-2,6-difluorobenzyl)oxy]-2,6-dimethylimidazo[1,2-a]pyridine-3-carboxamide] stands 1.00 µM; under `Cc1nc2c(OCc3c(F)cccc3F)cc(Cl)cn2c1C(=O)NC1CNCc2ccccc21` (single isomer, unassigned; ent-6) [Example 107, ent-6-chloro-8-[(2,6-difluorobenzyl)oxy]-2-methyl-N-(1,2,3,4-tetrahydroisoquinolin-4-yl)imidazo[1,2-a]pyridine-3-carboxamide], 0.30 µM; under `Cc1nc2c(OCc3c(F)cccc3F)cccn2c1C(=O)NCC(C)(N)CC(C)C` (single isomer, unassigned) [Example 203, ent-N-(2-Amino-2,4-dimethylpentyl)-8-[(2,6-difluorobenzyl)oxy]-2-methylimidazo[1,2-a]pyridine-3-carboxamide], 0.10 µM.

Consider `Cc1cc(OCc2c(F)cccc2F)c2nc(C)c(C(=O)NC3CNc4ccccc4C3)n2c1` (racemic) [Example 76, rac-8-[(2,6-difluorobenzyl)oxy]-2,6-dimethyl-N-(1,2,3,4-tetrahydroquinolin-3-yl)imidazo[1,2-a]-pyridine-3-carboxamide], for which the MEC is 0.30 µM.
